pEC50: −log10 of the molar value. Starred links: 1 amine or outer side, 2 acyl side, 3 side chain; linkers in the order of their positions; H or OH if unused. Positions of bridges follow the written chain, without caps; N, C: chain ends. Non-standard residues stand in square brackets, D forms with d. Primed or numbered codes have the meaning given here. Chains are numbered I, II in the order given. No end group written: not given here. *: point of attachment. X1 = O=C(CCOCCOCCOCCN(CCOCCOCCOCCn1cc(CCC(=O)[*:2])nn1)CCOCCOCCOCCn1cc(CCC(=O)[*:3])nn1)[*:1]; X3 = O=C(CCc1cn(CCOCCOCCOCCN(CCOCCOCCOCCC(=O)[*:3])CCOCCOCCOCCn2cc(CCC(=O)[*:2])nn2)nn1)[*:1]; PYA(3) = 4-pentynoic acid, on D-Lys NZ, clicked (triazole) to the linker azide; X2 = O=C(CCSCCC(=O)[*:1])N1CN(C(=O)CC[*:2])CN(C(=O)CC[*:3])C1; TATA = O=C(CC[*:1])N1CN(C(=O)CC[*:2])CN(C(=O)CC[*:3])C1; Dip = N[C@H](C(=O)O)C(c1ccccc1)c1ccccc1; γGlu = O=C(O)[C@H](CCC(=O)[*:2])N[*:1]; 1Nal = N[C@@H](Cc1cccc2ccccc12)C(=O)O; Palmitoyl = CCCCCCCCCCCCCCCC(=O)*; Hyp = O=C(O)[C@@H]1C[C@@H](O)CN1; hArg = N=C(N)NCCCC[C@H](N)C(=O)O; tBuAla = CC(C)(C)C[C@H](N)C(=O)O; Aad = N[C@@H](CCCC(=O)O)C(=O)O; Cysteamide = C(CS[*:3])N[*:1]; Cba = N[C@@H](CC1CCC1)C(=O)O; dK(PYA) = not defined here; dNle = CCCC[C@@H](N)C(=O)O; Nle = CCCC[C@H](N)C(=O)O; Pent4ynoyl = C#CCCC(=O)*; Mpa = O=C(O)CCS
Target: CD137 (Homo sapiens, UniProt Q07011)
Assay: CD137 reporter assay (Promega, Jurkat cells) in co-culture with EphA2-expressing tumor cells (A549, PC3, HT29)
Assay type: cell-based
Parameters: host or cells: Jurkat reporter cells
Details: for fold induction / Emax (fold induction over background): CD137 reporter coculture assay with PC3 tumor cells; for fold induction: read-out: Emax (fold induction over background); for pEC50: EC50, CD137 reporter coculture assay with PC3 tumor cells; for Fold Improvement over BCY9173, EC50 (nM) / Fold Improvement over Emax: co-culture with PC3; for Fold Improvement over Emax: versus BCY9173
Experimental: Culture medium, referred to as R1 media, is prepared by adding 1% FBS to RPMI-1640 (component of Promega kit CS196005). Serial dilutions of test articles in R1 are prepared in a sterile 96 well-plate. Add 25 μL per well of test articles or R1 (as a background control) to designated wells in a white cell culture plate. Tumor cells* are harvested and resuspended at a concentration of 400,000 cells/mL in R1 media. Twenty five (25) μL/well of tumor cells are added to the white cell culture plate. Jurkat cells (Promega kit CS196005, 0.5 mL) are thawed in the water bath and then added to 5 ml pre-warmed R1 media. Twenty five (25) μL/well of Jurkat cells are then added to the white cell culture plate. Incubate the cells and test articles for 6 h at 37° C., 5% CO2. At the end of 6 h, add 75 μL/well Bio-Glo™ reagent (Promega) and incubate for 10 min before reading luminescence in a plate reader (Clariostar, BMG). The fold change relative to cells alone (Jurkat cells+Cell line used in co-culture) is calculated and plotted in GraphPad Prism as log(agonist) vs response to determine EC50 (nM) and Fold Induction over background (Max).
The tumor cell types used in co-culture for EphA2 are A549, PC3 and HT29. The tumor cell type used in co-culture for PD-L1 is RKO.

CD137, sequence (Q07011 24-255): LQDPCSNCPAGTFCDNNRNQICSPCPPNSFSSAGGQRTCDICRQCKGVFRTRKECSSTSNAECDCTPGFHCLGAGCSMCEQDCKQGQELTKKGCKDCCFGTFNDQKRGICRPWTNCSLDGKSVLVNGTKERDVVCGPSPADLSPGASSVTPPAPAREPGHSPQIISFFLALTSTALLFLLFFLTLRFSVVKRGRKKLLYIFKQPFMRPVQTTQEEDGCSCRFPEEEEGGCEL

Row | Fold Improvement over BCY9173, EC50 (nM) | Fold Improvement over Emax | Substance | fold induction | pEC50 | Emax (fold induction over background)
1 | – | – | I: A[hArg]DC[Hyp][Aad]VNPLCLHP[dD]W[hArg]C-NH2 / II: Ac-C[tBuAla]PE[dK]PYCFADPY[Nle]CA-NH2 / III: Ac-C[tBuAla]PE[dK]PYCFADPY[Nle]CA-NH2 (linker I:4-I:11-I:18, II:1-II:8-II:15, III:1-III:8-III:15 via TATA; linker I:N-II:5-III:5 via X1) [BCY13284] | 34.7 | 9.60 | –
2 | – | – | I: [dA][hArg]DC[Hyp][Cba]VNPLCLEP[dA]WTC[dA]-NH2 / II: Ac-C[tBuAla]PE[dK]PYCFADPY[Nle]CA-NH2 / III: Ac-C[tBuAla]PE[dK]PYCFADPY[Nle]CA-NH2 (linker I:4-I:11-I:18, II:1-II:8-II:15, III:1-III:8-III:15 via TATA; linker I:N-II:5-III:5 via X1) [BCY13277] | 51.1 | 10.10 | –
3 | – | – | I: [dA]EDC[Hyp]LVNPLCLEP[dD]WTC-NH2 / II: Ac-C[tBuAla]PE[dK]PYCFADPY[Nle]CA-NH2 / III: Ac-C[tBuAla]PE[dK]PYCFADPY[Nle]CA-NH2 (linker I:4-I:11-I:18, II:1-II:8-II:15, III:1-III:8-III:15 via TATA; linker I:N-II:5-III:5 via X1) [BCY13280] | 38.1 | 9.72 | –
4 | 7.21 fold | 1.62 fold | BCY14334: EphA2:CD137 1:2; BCY14313 + 2x BCY8928; linker N-(acid-PEG3)-N-bis(PEG3-azide) (peptide 1 A[hArg]DC[Hyp]LVNPLCLKP[dD]W[hArg]C; peptide 2 Ac-C[tBuAla]PE[dK](Pent4ynoyl)PYCFADPY[Nle]CA; linker I:4-I:11-I:18, II:1-II:8-II:15 via TATA (inferred); not fully specified (some residues, N-terminus); also: 1:2 complex: chain 1 N-terminus joined to dLys(PYA)5 of two chain 2 copies via N-(acid-PEG3)-N-bis(PEG3-azide) linker) | – | – | –
5 | 0.2 fold | 1.5 fold | BCY12731: EphA2:CD137 1:2; BCY9594 + 2x BCY12354; linker N-(acid-PEG3)-N-bis(PEG3-azide) (peptide 1 A[hArg]DC[Hyp]LVNPLCLHP[dD]W[hArg]C; peptide 2 [Mpa][tBuAla]PE[dK(PYA)]PYCFADPY[Nle][Cysteamide]; linker I:4-I:11-I:18 via TATA (inferred); linker II:1-II:8-II:15 via TATA; not fully specified (N-terminus); reading uncertain; also: chain 2 twice (1:2 complex), linker at chain B 5 to a chain's N-terminus via N-(acid-PEG3)-N-bis(PEG3-azide)) | – | – | –
6 | – | – | I: A[hArg]DC[Hyp]LVNPLCLHP[dNle]W[hArg]C-NH2 / II: Ac-C[tBuAla]PE[dK]PYCFADPY[Nle]CA-NH2 / III: Ac-C[tBuAla]PE[dK]PYCFADPY[Nle]CA-NH2 (linker I:4-I:11-I:18, II:1-II:8-II:15, III:1-III:8-III:15 via TATA; linker I:N-II:5-III:5 via X1) [BCY13288] | 43.3 | 10.05 | –
7 | – | – | I: A[hArg]DC[Hyp]LVNPLCLEP[dD]WTC[dA]-NH2 / II: Ac-C[tBuAla]PE[dK]PYCFADPY[Nle]CA-NH2 / III: Ac-C[tBuAla]PE[dK]PYCFADPY[Nle]CA-NH2 (linker I:4-I:11-I:18, II:1-II:8-II:15, III:1-III:8-III:15 via TATA; linker I:N-II:5-III:5 via X1) [BCY13045] | – | 9.64 | 49.87
8 | – | – | I: Ac-A[hArg]DC[Hyp]LVNPLCLKP[dD]W[hArg]C-NH2 / II: Ac-C[tBuAla]PE[dK]PYCFADPY[Nle]CA-NH2 / III: Ac-C[tBuAla]PE[dK]PYCFADPY[Nle]CA-NH2 (linker I:4-I:11-I:18, II:1-II:8-II:15, III:1-III:8-III:15 via TATA; linker I:13-II:5-III:5 via X1) [BCY12974] | 59.6 | 9.74 | –
9 | – | – | I: A[hArg]DC[Hyp][Cba]VNPLCLEP[dD]WTC-NH2 / II: Ac-C[tBuAla]PE[dK]PYCFADPY[Nle]CA-NH2 / III: Ac-C[tBuAla]PE[dK]PYCFADPY[Nle]CA-NH2 (linker I:4-I:11-I:18, II:1-II:8-II:15, III:1-III:8-III:15 via TATA; linker I:N-II:5-III:5 via X1) [BCY13051] | – | 9.68 | 37.05
10 | 0.5 fold | 0.4 fold | BCY12732: EphA2:CD137 1:2; BCY9594 + 2x BCY12360; linker N-(acid-PEG3)-N-bis(PEG3-azide) (peptide 1 A[hArg]DC[Hyp]LVNPLCLHP[dD]W[hArg]C; peptide 2 {Palmitoyl-γGlu-γGlu}-C[tBuAla]PE[dK(PYA)]PYCFADPY[Nle]C; linker I:4-I:11-I:18 via TATA (inferred); linker II:1-II:8-II:15 via TATA; not fully specified (N-terminus); reading uncertain; also: chain 2 twice (1:2 complex), linker at chain B 5 to a chain's N-terminus via N-(acid-PEG3)-N-bis(PEG3-azide)) | – | – | –
11 | – | – | I: C[Hyp][Cba]VNPLCL[Dip]P[dD]WTC[dA]-NH2 / II: Ac-C[tBuAla]PE[dK]PYCFADPY[Nle]CA-NH2 / III: Ac-C[tBuAla]PE[dK]PYCFADPY[Nle]CA-NH2 (linker I:1-I:8-I:15, II:1-II:8-II:15, III:1-III:8-III:15 via TATA; linker I:N-II:5-III:5 via X1) [BCY13053] | – | 10.00 | 40.33
12 | 0.1 fold | 0.7 fold | BCY12725: EphA2:CD137 1:2; BCY9594 + 2x BCY12147; linker N-(acid-PEG3)-N-bis(PEG3-azide) (peptide 1 A[hArg]DC[Hyp]LVNPLCLHP[dD]W[hArg]C; peptide 2 Ac-C[tBuAla]PE[dK](PYA(3))PYCFANPY[Nle]C; linker I:4-I:11-I:18, II:1-II:8-II:15 via TATA; not fully specified (N-terminus, bridges); also: chain 2 present twice on linker, EphA2:CD137 1:2) | – | – | –
13 | – | – | I: Ac-A[hArg]DC[Hyp]KVNPLCLHP[dD]W[hArg]C-NH2 / II: Ac-C[tBuAla]PE[dK]PYCFADPY[Nle]CA-NH2 / III: Ac-C[tBuAla]PE[dK]PYCFADPY[Nle]CA-NH2 (linker I:4-I:11-I:18, II:1-II:8-II:15, III:1-III:8-III:15 via TATA; linker I:6-II:5-III:5 via X1) [BCY12975] | 68.8 | 9.80 | –
14 | – | – | I: Ac-C[tBuAla]PE[dK]PYCFADPY[Nle]CA-NH2 / II: Ac-C[tBuAla]PE[dK]PYCFADPY[Nle]CA-NH2 / III: C[Hyp]LVNPLCL[1Nal]P[dD]WTC-NH2 (linker I:1-I:8-I:15, II:1-II:8-II:15, III:1-III:8-III:15 via TATA; linker I:5-II:5-III:N via X3) [BCY13273] | – | – | 51.27
15 | 4.74 fold | 2.08 fold | BCY13279: EphA2:CD137 1:2; BCY13125 (C-term dLys) + 2x BCY8928; linker N-(acid-PEG3)-N-bis(PEG3-azide) (peptide 1 Ac-C[Hyp]LVNPLCLHP[dD]W[hArg]CL[dH]G[dK]; peptide 2 Ac-C[tBuAla]PE[dK](Pent4ynoyl)PYCFADPY[Nle]CA; linker I:1-I:8-I:15 via TATA; linker II:1-II:8-II:15 via TATA (inferred); not fully specified (bridges); also: linker N-(acid-PEG3)-N-bis(PEG3-azide) on C-terminal dK of chain 1, joins two chain 2 copies (2x BCY8928) via PYA triazoles) | – | – | –
16 | – | – | I: A[hArg]DC[Hyp]LVNPLCLEP[dA]WTC-NH2 / II: Ac-C[tBuAla]PE[dK]PYCFADPY[Nle]CA-NH2 / III: Ac-C[tBuAla]PE[dK]PYCFADPY[Nle]CA-NH2 (linker I:4-I:11-I:18, II:1-II:8-II:15, III:1-III:8-III:15 via TATA; linker I:N-II:5-III:5 via X1) [BCY13046] | 57.6 | 9.77 | –
17 | – | – | I: A[hArg]DC[Hyp]LVNPLCLEP[dD]WTC-NH2 / II: [Mpa][tBuAla]PE[dK]PYCFADPY[Nle]C-NH2 / III: [tBuAla]PE[dK]PYCFADPY[Nle]C-NH2 (linker I:4-I:11-I:18, II:1-II:8-II:15 via TATA; linker I:N-II:5-III:4 via X1; linker III:N-III:7-III:14 via X2) [BCY13138] | 32.6 | 9.77 | –
18 | – | – | I: A[hArg]DC[Hyp]LVNPLCL[Aad]P[dD]W[hArg]C-NH2 / II: Ac-C[tBuAla]PE[dK]PYCFADPY[Nle]CA-NH2 / III: Ac-C[tBuAla]PE[dK]PYCFADPY[Nle]CA-NH2 (linker I:4-I:11-I:18, II:1-II:8-II:15, III:1-III:8-III:15 via TATA; linker I:N-II:5-III:5 via X1) [BCY13286] | 34.1 | 9.96 | –

From US20230129258A1, “HETEROTANDEM BICYCLIC PEPTIDE COMPLEXES” (BicycleTx Limited, priority 2019, published 2023)
